Where a name gives a salt, the structure may show the parent alone.
Key:
[1] = test system: Hartley male guinea pigs; assay: guinea pig wheal method (durability of local anesthetic action); settings: for ED50 for adrenaline alone (local anesthesia enhancing action) / ED50 for dexmedetomidine hydrochloride alone (local anesthesia enhancing action): added alone to lidocaine hydrochloride; for ED50 for adrenaline alone (local anesthesia enhancing action): calculated from scores of Solutions 6 to 10; for theoretical ED50 value in combined use / ED50 value obtained in the experiment in combined use: combined use of adrenaline and dexmedetomidine; for theoretical ED50 value in combined use: isobologram, mean ±95% confidence interval in brackets; for ED50 value obtained in the experiment in combined use: significantly different from theoretical, P<0.05 (T-test); for ED50 for dexmedetomidine hydrochloride alone (local anesthesia enhancing action): calculated from scores of Solutions 1 to 5
Description: A guinea pig wheal method was employed. The hair on the back of Hartley male guinea pigs each having a body weight of 500 to 600 g was clipped. After that, 0.1 ml each of Solutions 1 to 5 blended as described above was injected intracutaneously, and the surroundings of wheals, which developed in the skin, were marked with a felt-tipped pen. Pricks were applied on six sites inside each wheal with a fixed-weight sensory needle. […] The pricks were applied every 5 minutes until 60 minutes, and the total of the number of times that an anesthetic effect was observed was used as a score to assess the durability of a local anesthetic action. A 50% effective dose (effective dose 50: ED50) for dexmedetomidine was calculated based on a score for each of Solutions 1 to 5.
Each score for Solutions 16 to 21 and Solutions 22 to 27 was calculated to assess a local anesthetic effect.
Each score for Solutions 28 to 31 was calculated to assess a local anesthetic effect.

[2] = test system: Hartley male guinea pigs; assay: peripheral blood flow by Doppler rheometer after intradermal injection; format: in vivo, guinea pig; settings: 0.1 ml intradermal, every 5 minutes until 30 minutes, ratio to baseline; FIG. 2
Description: The hair of the back was clipped and then three sites around the center of the back were marked with a felt-tipped pen at sufficient intervals. A blood flow value was measured by attaching a Doppler rheometer (ALF21RD; ADVANCE CO., LTD., Tokyo) probe and was used as a baseline value (Time 0). […] 0.1 ml each of Solutions 32, 33, and 34 obtained by the blending was intradermally injected into the three sites and the Doppler rheometer probe was fixed on the same sites. A blood flow value was time-dependently measured at an interval of 5 minutes after the injection until 30 minutes. The ratio of the blood flow value to the baseline value (0 to 1.0) was expressed as a peripheral blood flow degree and a time-dependent change at each of the injection sites was determined.

Structure (SMILES)	ED50 for adrenaline alone (local anesthesia enhancing action) [1]	ED50 for adrenaline alone (local anesthesia enhancing action) ([1]; listed as Adrenaline)	theoretical ED50 value in combined use [1]	ED50 value obtained in the experiment in combined use [1]	peripheral blood flow / peripheral vasoconstriction [2]	ED50 for dexmedetomidine hydrochloride alone (local anesthesia enhancing action) [1]	ED50 for dexmedetomidine hydrochloride alone (local anesthesia enhancing action) ([1]; listed as Dexmedetomidine hydrochloride)
CNCC(O)c1ccc(O)c(O)c1 (stereo not drawn) [adrenaline]	5.91 µM	5.91 µM	2.96 µM	0.788 µM	–	–	–
Cc1cccc([C@H](C)c2cnc[nH]2)c1C [dexmedetomidine hydrochloride, Dexmedetomidine hydrochloride]	–	–	0.0392 µM	0.0113 µM	tended to suppress the peripheral vasoconstriction action of adrenaline	0.0783 µM	0.0783 µM

— US8603497B2, “Composition for local anesthesia” (National University Corporation Okayama University, priority 2008, dated 2013)
